Laboratory results from patent publication US20040142405A1, “Method of detecting drug resistance” (priority 2003, published 2004).
Where two headings read alike, the source gives them in different places.

Legend:
[1] = target: T1, HIV-1 viral protease (PR) (Human immunodeficiency virus type 1 group M subtype B, UniProt P04585); format: biochemical; settings: for interfacial electron transfer resistance Ret after biocatalyzed precipitation of (20) (curve f): translation in the presence of saquinavir 1×10^−4 M, 10 min precipitation, non-inhibited mixture 2500 Ω
Method: (§1) A conventional three electrode cell, consisting of the modified Au electrode, a glassy carbon auxiliary electrode isolated by a glass frit, and a saturated calomel electrode (SCE) connected to the working volume with a Luggin capillary, was used for the electrochemical measurements. The cell was positioned in a grounded Faradaic cage. Impedance measurements were performed using an electrochemical impedance analyzer (EG&G, model 1025) and potentiostat (EG&G, model 283) connected to a computer (EG&G Software Power Suite 1.03 and 270 for impedance measurements). All electrochemical measurements were performed in 0.1 M phosphate buffer, pH 7.0, as a background electrolyte solution. Faradaic impedance measurements were performed in the presence of 10 mM K3[Fe(CN)6]/K4Fe(CN)6] (1:1) mixture, as a redox probe. Impedance measurements were performed at a bias potential of 0.17 V versus SCE using alternating voltage, 10 mV, in the frequency range of 100 mHz to 10 kHz. The impedance spectra were plotted in the form of complex plane diagrams (Nyquist plots).
The electrodes were rinsed with water, dried, and soaked in a 10 mM solution of the DSP-active ester in DMSO for 30 min at room temperature. The functionalized electrodes were rinsed with DMSO and water and incubated in a 100 μg·m]L^−1 solution of protein G, for 90 min in a phosphate buffer saline solution, pH=7.4, at room temperature, to couple covalently protein G lysine residues to the functionalized electrodes. The protein G-functionalized electrodes were then allowed to interact with the Fc fragment of the anti-CA-antibody, 1 μg·mL^−1, 30 min at room temperature, to yield the sensing interfaces.
(§2) The antibody-functionalized electrode was interacted with varying concentrations of the Gag polyprotein generated in the translation mixture for 60 min. diluted to 1.0 mL in phosphate-buffered saline (PBS) solution, 0.1 M, pH 7.0, at room temperature. After attachment of the respective polyprotein to the sensing interface, the electrode was incubated in the solution of anti-MA or anti-CA (sources were 200-fold diluted) for 30 min at room temperature. After attachment to the respective antibody, the electrode was incubated either in a goat-anti-rabbit-HRP conjugate solution (2.5 μg·mL^−1), for the MA analysis, or in a goat-anti-mouse-HRP conjugate solution (2.5 μg·mL^−1) for the CA analysis, for 30 minutes at room temperature. 4-Chloro-1-naphthol (1) (FIG. 1D) was dissolved initially in ethanol and then the ethanolic stock solution was diluted with 0.1 M phosphate buffer, pH 7.0, to yield the developing solution that included 1×10^−3 M (1) and 2% (v/v) ethanol. The modified electrodes consisting of the HRP-tagged antibody-functionalized electrodes were incubated in the developing solution of (1) for a fixed and controlled time of 10 minutes at room temperature to stimulate the precipitation of (2) (FIG. 1D).
(§3) After incubation of the respective electrodes in the probe solution, the electrodes were rinsed with 0.1 M phosphate buffer, pH 7.0, and introduced into the electrochemical cell for their analyses by Faradaic impedance spectroscopy. It should be noted that after each step the electrode was rinsed thoroughly with buffer solution, pH 7.0, to eliminate any non-specific adsorbates on the electrode. In the microgravimetric quartz crystal microbalance measurements, the various modification and amplification steps, including the rinsing steps, were performed in the flow cell of the QCM apparatus.
(§4) All the RNA preparations were translated in vitro using the “Biotin in vitro translation kit” (Roche 1559951) in the absence or presence of Saquinavir (Ro 31-8959). Reactions were performed in 50 μL, according to the manufacturer's instructions, using DEPC-treated water. The PR inhibitor Saquinavir was dissolved in 1M NaCl in the DEPC-treated water, and was added to reaction mixtures before starting the synthesis.

[2] = test system: viral PR from patients' plasma HIV RNA; experiment: Four-path impedance analysis (FIG. 5) of RNA extracted from blood samples of AIDS patients treated with saquinavir; format: biochemical; settings: for α = Ret^B(1)/Ret^A(1): CA units, anti-CA; for β = Ret^B(2)/Ret^A(2): MA units, anti-MA, β≈1.0 drug resistant, β<1 drug sensitive
Method: Plasma was obtained from consenting donors following removal of blood cells by centrifugation for 5 minutes at 3,000 rpm. The plasma was 3-fold diluted with PBS, and viral particles were peletted by centrifuging the volume for 45 minutes at 45,000 rpm in a Backman centrifuge (SW 50.1 rotor). The viral pellets were suspended in 1 mL TRIzol reagent (Gibco BRL) containing 5-10 μg of tRNA (Sigma) as carrier and RNA was extracted according to the manufacturer's instructions.
All the RNA preparations were translated in vitro using the “Biotin in vitro translation kit” (Roche 1559951) in the absence or presence of Saquinavir (Ro 31-8959). Reactions were performed in 50 μL, according to the manufacturer's instructions, using DEPC-treated water. The PR inhibitor Saquinavir was dissolved in 1M NaCl in the DEPC-treated water, and was added to reaction mixtures before starting the synthesis. The reaction mixtures were incubated for 90 min at 30° C. and the reactions were halted by placing in ice or storage at −75° C. until further use in the electrochemical measurements.
An extracted RNA specimen 100 is subdivided into two samples, A 102 and B 104. While sample A is subjected to in vitro translation in the presence of the PI, sample B is translated in the absence of the PI. Each of the translation mixtures is then further divided into two equal sub-samples, sample A into sub-samples A(1) 106 and A(2) 108, and sample B into sub-samples B(1) 110 and B(2) 112. The sub-samples A(1) and B(1) are subjected to the analysis of the total CA units using anti-CA, according to FIG. 1B, route (ii). The sub-samples A(2) and B(2) utilize the anti-MA antibody to assess content of polyprotein in the respective samples, according to FIG. 1A and FIG. 1B, route (i). Note that the ratio of the interfacial electron transfer resistances generated upon the precipitation of the precipitate (20) in sub-samples A(2) and B(2) reflect the content of polyprotein generated under PR inhibition vs. the unprocessed (=unhydrolyzed) polyprotein in the system.
The ratio of electron transfer resistances of paths A(1) and B(1) should be independent of the PI, and its value should be ≈1. This ratio provides an internal standard for the effectiveness of translations in the entire set of experiments. Thus, the four-path analysis scheme of the mRNA translation processes eliminates the background signal of unprocessed polyproteins in the absence of the inhibitor. The assay also abrogates the difference in the affinities of anti-CA and anti-MA to the respective antigens. Since the original sample is subdivided into equivalent sub-samples prior to translations, the problem of different RNA contents in analysis paths is cancelled out.
The analysis scheme outlined in FIG. 5 was applied to detect drug resistance in AIDS patients, treated with saquinavir. In this process, we expect that the analysis of the CA-units by the anti-CA antibodies will lead to an electron transfer resistance ratio of paths A(1) 106 and B(1) 110 in FIG. 5, that corresponds to α=Ret^B(1)/Ret^A(1)≈1.0 whereas the ratio of electron transfer resistance analyzing the MA-units with the anti-MA antibody of paths B(2) 112 and A(2) 108 in FIG. 5 should reveal the value β=Ret^B(2)/Ret^A(2)≈1.0 for drug resistant patients, and β<1 for drug sensitive patients.

G48V mutated PR = target: T2, G48V mutated PR (Human immunodeficiency virus type 1 group M subtype B, UniProt P12497, G536V); experiment: Four-path impedance analysis (FIG. 5) of proteins translated from RNA of the HIV-1 G48V mutant; format: biochemical, HIV-1 (NL4-3)
T2 construct: a virus encoded protease (PR) which is one of the individual proteins making up the uncleaved polyprotein; made in house; host or cells: cell-free in vitro translation (Biotin in vitro translation kit, Roche 1559951) of RNA from the media of cultured cells infected with HIV-1 G48V
Method: as §1
as §2, with “The modified electrodes consisting of the HRP-tagged antibody-functionalized electrodes were incubated in the developing solution of (1) for a fixed and controlled time of 10 minutes at room temperature to stimulate the precipitation of (2) (FIG. 1D).” left out

[3] = target: T1, HIV-1 viral protease (PR); format: biochemical
Method: as §2, §3, §4

viral PR = viral PR (Human immunodeficiency virus type 1 group M subtype B, UniProt P04585); format: biochemical; settings: RNA of HIV-1 infected cultured cells, increased concentrations of saquinavir, FIG. 8
Method: as §2
All the RNA preparations were translated in vitro using the “Biotin in vitro translation kit” (Roche 1559951) in the absence or presence of Saquinavir (Ro 31-8959). […]

[4] = target: protease encoded by the wild-type viral RNA (HIV-1 PR) (Human immunodeficiency virus type 1 group M subtype B, UniProt P04585); format: biochemical
Method: as §1
The antibody-functionalized electrode was interacted with varying concentrations of the Gag polyprotein generated in the translation mixture for 60 min. diluted to 1.0 mL in phosphate-buffered saline (PBS) solution, 0.1 M, pH 7.0, at room temperature. […]

AIDS patients = settings: cited from earlier work
[5] = translation of bacterial RNA in the presence of saquinavir 1×10^−4 M

## CC(C)(C)NC(=O)[C@@H]1C[C@@H]2CCCC[C@@H]2CN1C[C@@H](O)[C@H](Cc1ccccc1)NC(=O)[C@H](CC(N)=O)NC(=O)c1ccc2ccccc2n1 [saquinavir]
[1]; identical quantities of mRNA, absence vs presence of Saquinavir
  ΔRet upon precipitation, non-inhibited mixture lower than inhibited translation mixture: 4 fold
[1]; inhibited translation mixture, non-inhibited mixture ΔRet=500 Ω
  increase in interfacial electron transfer resistance ΔRet upon the precipitation of (20): ≈ 2000 Ω
[1]
  interfacial electron transfer resistance Ret after biocatalyzed precipitation of (20) (curve f): 5000 Ω
[1]; listed as Saquinavir
  interfacial electron transfer resistance Ret after biocatalyzed precipitation of (20) (curve f): ca. 5100 Ω
[1]; [5]
  electron transfer resistance Ret after addition of anti-anti-MA-HRP conjugate (curve e): 3000 Ω
  interfacial electron-transfer resistance Ret after association of anti-MA-Ab (curve d): 2800 Ω
  interfacial electron-transfer resistance after binding of the Gag polyprotein to anti-CA-Ab (curve c): 2100 Ω
[2]; Patient # 1
  α = Ret^B(1)/Ret^A(1): 1.17 ± 0.03
  β = Ret^B(2)/Ret^A(2): 0.87 ± 0.04
[2]; Patient # 2
  α = Ret^B(1)/Ret^A(1): 1.07 ± 0.03
  β = Ret^B(2)/Ret^A(2): 1.1 ± 0.04
[2]; Patient # 3
  α = Ret^B(1)/Ret^A(1): 1.04 ± 0.03
  β = Ret^B(2)/Ret^A(2): 0.75 ± 0.04
[2]; Patient # 4
  α = Ret^B(1)/Ret^A(1): 1.10 ± 0.03
  β = Ret^B(2)/Ret^A(2): 0.79 ± 0.04
[2]; Patient # 5
  α = Ret^B(1)/Ret^A(1): 1.0 ± 0.03
  β = Ret^B(2)/Ret^A(2): 1.07 ± 0.04
G48V mutated PR
  effect of the inhibitor on the protease activity: no effect of the inhibitor is observed
G48V mutated PR; identical to path B(2) without inhibitor
  interfacial resistance Ret, path A(2) with the inhibitor (curve d): ≈ 11 kΩ
G48V mutated PR; without vs with inhibitor
  ratio Ret^B(2)/Ret^A(2): 1
[3]
  Anti-MA Δf: −80 Hz
  Anti-anti MA/HRP Δf: −140 Hz
  Precipitation of (2) Δf: −100 Hz
  frequency change upon treatment of the surface with the translated proteins: −50 Hz
Viral PR
  interfacial electron transfer resistance as the concentration of the inhibitor increases: enhanced
[4]
  ratio Ret^B(2)/Ret^A(2): 0.43
[4]; wild type virus, saquinavir 1×10^−4 M, non-inhibited path B(2) Ret=6
  electron transfer resistance Ret, path A(2), anti-MA analysis (curve d): 14 kω
AIDS patients; all other patients (#1, #3, #4), subjective statements of the physicians
  clinical condition under treatment: balanced conditions
AIDS patients; patients #2 and #5, subjective statements of the physicians
  clinical response to treatment: did not react to the treatment
